According to the supplement of paper PMC10307832:

Experiments:
Doxorubicin + Tozasertib = compound: COc1cccc2c1C(=O)c1c(O)c3c(c(O)c1C2=O)C[C@@](O)(C(=O)CO)C[C@@H]3O[C@H]1C[C@H](N)[C@H](O)[C@H](C)O1 [Doxorubicin] + Cc1cc(Nc2cc(N3CCN(C)CC3)nc(Sc3ccc(NC(=O)C4CC4)cc3)n2)n[nH]1 [Tozasertib] (partner 0.1 µM); assay: relative viability (nuclei count vs DMSO), 5 days (fraction); higher = more cells survive
In short: (§1)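 Relative viability divides the nuclei count in treated wells by that in vehicle wells. Lung cancer cell lines were seeded in 1536-well plates, dosed by pin tool the next day, and fixed and stained after 5 days in one step with final 0.05% Triton X-100, 1% formaldehyde and 1 ug/ml Hoechst. Dosing was a single drug or a fixed anchor-drug dose plus five library-drug doses (not always all listed) in √10 steps, and values are medians of duplicate plates imaged at 4×.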

BAY61-3606 + Foretinib = compound: COC1=C(C=C(C=C1)C2=CC3=NC=CN3C(=N2)NC4=C(C=CC=N4)C(=O)N)OC [BAY61-3606] + COc1cc2c(Oc3ccc(NC(=O)C4(C(=O)Nc5ccc(F)cc5)CC4)cc3F)ccnc2cc1OCCCN1CCOCC1 [Foretinib] (partner 0.25 µM); assay: as above
In short: as §1

Row | Cell Line | relative viability (Doxorubicin + Tozasertib; first compound 0.001 µM) | relative viability (Doxorubicin + Tozasertib; first compound 0.003162 µM) | relative viability (Doxorubicin + Tozasertib; first compound 0.01 µM) | relative viability (Doxorubicin + Tozasertib; first compound 0.03162 µM) | relative viability (Doxorubicin + Tozasertib; first compound 0.1 µM) | relative viability (BAY61-3606 + Foretinib; first compound 0.02 µM) | relative viability (BAY61-3606 + Foretinib; first compound 0.06325 µM) | relative viability (BAY61-3606 + Foretinib; first compound 0.2 µM) | relative viability (BAY61-3606 + Foretinib; first compound 0.6325 µM) | relative viability (BAY61-3606 + Foretinib; first compound 2 µM)
1 | NCI-H1993 | 0.593 | 0.657 | 0.555 | 0.58 | 0.591 | 0.818 | 0.772 | 0.712 | 0.794 | 0.66
2 | CAL-12T | 0.339 | 0.283 | 0.257 | 0.207 | 0.136 | 1.12 | 1.19 | 1 | 1.19 | 0.656
3 | NCI-H1623 | 0.489 | 0.426 | 0.417 | 0.39 | 0.445 | 0.841 | 0.919 | 0.896 | 0.864 | 0.846
4 | HCC-78 | 0.491 | 0.44 | 0.403 | 0.353 | 0.388 | 0.519 | 0.516 | 0.568 | 0.545 | 0.578
5 | EKVX | 0.35 | 0.434 | 0.383 | 0.415 | 0.342 | 0.986 | 0.673 | 0.768 | 0.978 | 0.695
6 | NCI-H1666 | 0.62 | 0.547 | 0.47 | 0.385 | 0.343 | 1.06 | 1.02 | 0.987 | 0.991 | 0.918
7 | NCI-H2170 | 0.741 | 0.711 | 0.651 | 0.581 | 0.701 | 0.993 | 1.03 | 1.02 | 0.523 | 0.782
8 | NCI-H1734 | 0.48 | 0.275 | 0.292 | 0.238 | 0.249 | 0.825 | 0.79 | 0.743 | 0.836 | 0.411
9 | Calu-6 |  |  |  |  |  | 0.894 | 0.905 | 0.793 | 0.773 | 0.617
10 | EBC-1 |  |  |  |  |  | 0.105 | 0.0977 | 0.0899 | 0.0956 | 0.102
11 | NCI-H596 | 0.857 | 1.08 | 0.943 | 0.806 | 0.859 | 0.768 | 0.761 | 0.841 | 0.844 | 0.726
12 | A-427 | 0.241 | 0.215 | 0.183 | 0.238 | 0.213 | 1.16 | 1.01 | 1.04 | 1.24 | 0.925
13 | NCI-H3122 | 0.339 | 0.375 | 0.335 | 0.169 | 0.141 | 0.952 | 1.07 | 0.94 | 0.962 | 0.969
14 | NCI-H1437 | 0.411 | 0.414 | 0.405 | 0.379 | 0.283 | 1.23 | 1.22 | 1.31 | 1.38 | 1.28
15 | SK-MES-1 | 0.856 | 0.867 | 0.583 | 0.211 | 0.162 | 1.08 | 0.918 | 0.85 | 0.96 | 0.839
16 | HCC-366 |  | 0.156 | 0.179 | 0.106 | 0.158 | 0.934 | 0.942 | 0.93 | 0.924 | 0.893
17 | NCI-H2347 | 0.62 | 0.551 | 0.736 | 0.53 | 0.636 | 1.03 | 0.601 | 1.46 | 0.856 | 1.17

Row | Cell Line | relative viability (Doxorubicin + Tozasertib; first compound 0.001 µM) | relative viability (Doxorubicin + Tozasertib; first compound 0.003162 µM) | relative viability (Doxorubicin + Tozasertib; first compound 0.01 µM) | relative viability (Doxorubicin + Tozasertib; first compound 0.03162 µM) | relative viability (Doxorubicin + Tozasertib; first compound 0.1 µM) | relative viability (BAY61-3606 + Foretinib; first compound 0.02 µM) | relative viability (BAY61-3606 + Foretinib; first compound 0.06325 µM) | relative viability (BAY61-3606 + Foretinib; first compound 0.2 µM) | relative viability (BAY61-3606 + Foretinib; first compound 0.6325 µM) | relative viability (BAY61-3606 + Foretinib; first compound 2 µM)
18 | IA-LM |  |  |  |  |  | 1.23 | 1.09 | 1.01 | 1.13 | 0.959
19 | HARA | 0.112 | 0.126 | 0.241 | 0.128 | 0.145 | 0.926 | 0.76 | 0.832 | 0.887 | 0.631
20 | SW 1573 | 0.185 | 0.144 | 0.148 | 0.103 | 0.0879 | 1.18 | 0.872 | 0.81 | 0.839 | 0.757
21 | HCC-827 | 0.45 | 0.391 | 0.407 | 0.416 | 0.432 | 1.04 | 1.01 | 1.11 | 1.07 | 1.03
22 | LC-2-ad | 0.455 | 0.402 | 0.401 | 0.246 | 0.239 | 1.05 | 0.83 | 0.971 | 1.11 | 0.653
23 | NCI-H520 | 0.409 | 0.432 | 0.434 | 0.343 | 0.413 | 0.935 | 0.716 | 0.839 | 0.669 | 0.744
24 | NCI-H460 | 0.419 | 0.388 | 0.264 | 0.185 | 0.165 | 1.05 | 1 | 1.05 | 0.973 | 0.945
25 | SK-LU-1 | 0.318 | 0.326 | 0.288 | 0.173 | 0.179 | 0.863 | 0.863 | 0.745 | 0.758 | 0.408
26 | COR-L23 | 0.227 | 0.186 | 0.201 | 0.123 | 0.122 | 0.999 | 0.944 | 0.963 | 0.992 | 0.865
27 | NCI-H2126 | 0.902 | 0.752 | 0.774 | 0.229 | 0.251 | 1.4 | 1.21 | 1.06 | 1.13 | 0.959
28 | LCLC-103H | 0.531 | 0.411 | 0.465 | 0.414 | 0.529 | 0.81 | 0.83 | 0.832 | 0.701 | 0.681
29 | NCI-H1975 | 0.745 | 0.711 | 0.664 | 0.303 | 0.178 | 1.06 | 0.931 | 0.874 | 0.974 | 0.65
30 | NCI-H1944 | 0.24 | 0.267 | 0.231 | 0.235 | 0.239 | 0.912 | 0.815 | 0.858 | 0.886 | 0.396
31 | NCI-H2085 | 0.815 | 0.829 | 0.919 | 0.796 | 0.829 | 1.07 | 0.947 | 0.995 | 0.871 | 0.917
32 | COR-L 105 | 0.424 | 0.368 | 0.443 | 0.334 | 0.344 | 1.32 | 1.36 | 0.884 | 1.05 | 0.605
33 | NCI-H23 |  | 0.452 | 0.362 | 0.389 | 0.397 | 1.05 | 0.907 | 1.01 | 1.03 | 0.874
34 | NCI-H1299 |  |  |  |  |  | 1.12 | 1.07 | 1.11 | 1.03 | 1.07
